This is an account of results in ChEMBL document CHEMBL1201862, “PubChem BioAssay data set” (2004).

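Cells were grown in 96-well plates and exposed to each compound for 48 hours at five concentrations; endpoints were interpolated linearly between bracketing concentrations, or set to the highest concentration if not reached. The concentration for 50% growth inhibition is given as GI50.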 Activity calls are given as the source filed them. Cut-off read from the data, not from the text of the source: active = GI50 up to about 1.1 µM and inactive = higher.

Among the test systems are BT-549; DU-145; EKVX; HCT-116; K562; NCI-H460; NCI-H522; NCI/ADR-RES; OVCAR-5; OVCAR-8; SF-268; SK-MEL-28; SK-MEL-5; SN12C; SNB-19; SW-620; U-251; UACC-257; UACC-62; SF-539.
Common to all, as to assay: growth of human tumour cells (NCI), 48 h

Turning to `CCN(CC)CCOC(c1cc(OC)ccc1OC)c1ccc2n1-c1ccccc1OC2` (stereo unspecified), the GI50 is 12.7 µM (inactive) in the assay with BT-549; 22.9 µM (inactive) in the assay with DU-145; 16.1 µM (inactive) in the assay on EKVX; 12.6 µM (inactive) in the assay on HCT-116; 7.23 µM (inactive) in the assay on K562; 12.4 µM (inactive) with NCI-H460. The GI50 is 15.2 µM (inactive) in the assay on NCI-H522; 2.57 µM (inactive) in the assay with NCI/ADR-RES; 15.8 µM (inactive) with OVCAR-5; 13.2 µM (inactive) in the assay on OVCAR-8; 14.5 µM (inactive) in the assay on SF-268; 15 µM (inactive) in the assay on SK-MEL-28. In addition, the GI50 was 10.4 µM (inactive) with SK-MEL-5; 2.48 µM (inactive) in the assay on SN12C; 15.7 µM (inactive) with SNB-19; 8.85 µM (inactive) in the assay with SW-620; 14.9 µM (inactive) in the assay with U-251; 16 µM (inactive) in the assay on UACC-257. Also, in the assay with UACC-62, the GI50 is 2.39 µM (inactive).
As for `COc1ccccc1/C(=N\OCCC(=O)O)c1cccs1`, the GI50 with BT-549, with DU-145, in the assay with EKVX, with HCT-116, with K562 and in the assay on NCI-H460 was > 100 µM (inactive) in each case. The GI50 in the assay with NCI/ADR-RES, with OVCAR-5, in the assay with OVCAR-8, in the assay on SF-268, with SF-539 and in the assay with SK-MEL-28 was > 100 µM (inactive) each time. Further, the GI50 in the assay on SK-MEL-5, in the assay on SN12C, in the assay on SNB-19, in the assay on SW-620, in the assay on U-251 and in the assay with UACC-257 was > 100 µM (inactive) in each case. Moreover, the GI50 with UACC-62 was > 100 µM (inactive).
For `Cc1cccc2c(N)c3cccc(C(=O)NCC[N+](C)(C)[O-])c3nc12`, the GI50 is 15.2 µM (inactive) with BT-549; 3.02 µM (inactive) with DU-145; 15.6 µM (inactive) in the assay on EKVX; 13.2 µM (inactive) in the assay on HCT-116; 3.13 µM (inactive) in the assay with K562; 0.538 µM (active) in the assay with NCI-H460. Moreover, the GI50 in the assay with NCI/ADR-RES is 6.21 µM (inactive); in the assay with OVCAR-5, 5.32 µM (inactive); in the assay on OVCAR-8, 8.61 µM (inactive); in the assay with SF-268 it was 1.96 µM (inactive); in the assay on SF-539, 6.82 µM (inactive); in the assay on SK-MEL-28 it was 17.3 µM (inactive). In addition, the GI50 was 22.8 µM (inactive) in the assay with SK-MEL-5; 3.64 µM (inactive) in the assay on SN12C; 7.87 µM (inactive) with SNB-19; 5.53 µM (inactive) in the assay on SW-620; 4 µM (inactive) with U-251; 20.6 µM (inactive) with UACC-257. The GI50 in the assay on UACC-62 is 8.99 µM (inactive).
Regarding `CC1(c2cccc(C(F)(F)F)c2)CC(c2cccc(C(F)(F)F)c2)=C(C#N)C(=C(C#N)C#N)N1` (stereo unspecified), the GI50 was 18.7 µM (inactive) in the assay with BT-549; 17.2 µM (inactive) in the assay with DU-145; 17.9 µM (inactive) in the assay on EKVX; 15.2 µM (inactive) with HCT-116; 15.2 µM (inactive) with K562; 19.3 µM (inactive) with NCI-H460. Besides, the GI50 was 19.5 µM (inactive) with NCI/ADR-RES; 18.2 µM (inactive) in the assay with OVCAR-5; 17.5 µM (inactive) in the assay on OVCAR-8; 15 µM (inactive) in the assay with SF-268; 17.4 µM (inactive) with SF-539; 16 µM (inactive) with SK-MEL-28. Besides, the GI50 in the assay on SK-MEL-5 is 15.2 µM (inactive); in the assay with SN12C, 18.1 µM (inactive); with SNB-19 it was 19.4 µM (inactive); in the assay on SW-620, 15 µM (inactive); with U-251 it was 18.4 µM (inactive); in the assay on UACC-257 it was 15.9 µM (inactive). Further, the GI50 in the assay on UACC-62 is 16.7 µM (inactive).
